The target in this test is T1, Androgen receptor (Rattus norvegicus, UniProt P15207).
T1 sequence (P15207 whole entry): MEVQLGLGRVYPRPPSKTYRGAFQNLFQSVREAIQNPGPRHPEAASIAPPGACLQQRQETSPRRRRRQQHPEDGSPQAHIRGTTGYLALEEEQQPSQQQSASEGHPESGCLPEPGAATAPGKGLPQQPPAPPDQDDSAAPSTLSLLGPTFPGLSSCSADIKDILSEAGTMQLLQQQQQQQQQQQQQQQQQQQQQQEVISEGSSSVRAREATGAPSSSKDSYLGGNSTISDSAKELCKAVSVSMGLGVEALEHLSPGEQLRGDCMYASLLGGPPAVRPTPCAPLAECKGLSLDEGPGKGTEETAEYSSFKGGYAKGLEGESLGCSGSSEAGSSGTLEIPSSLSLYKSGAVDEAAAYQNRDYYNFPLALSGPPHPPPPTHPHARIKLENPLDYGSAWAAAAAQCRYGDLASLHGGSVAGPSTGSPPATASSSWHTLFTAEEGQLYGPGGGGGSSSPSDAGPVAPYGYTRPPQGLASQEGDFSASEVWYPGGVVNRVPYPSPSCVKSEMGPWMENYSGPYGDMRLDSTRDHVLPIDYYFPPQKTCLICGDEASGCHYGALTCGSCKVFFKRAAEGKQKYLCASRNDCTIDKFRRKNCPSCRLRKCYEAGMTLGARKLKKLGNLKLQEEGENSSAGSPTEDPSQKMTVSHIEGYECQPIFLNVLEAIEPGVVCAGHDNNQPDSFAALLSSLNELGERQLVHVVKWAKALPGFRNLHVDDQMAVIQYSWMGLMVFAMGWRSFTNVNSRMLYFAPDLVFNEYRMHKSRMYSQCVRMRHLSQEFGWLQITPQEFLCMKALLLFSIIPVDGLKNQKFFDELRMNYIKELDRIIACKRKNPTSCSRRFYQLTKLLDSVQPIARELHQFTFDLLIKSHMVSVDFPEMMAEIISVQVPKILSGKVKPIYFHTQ
The test can be described thus: Binding Affinity towards Rat Androgen Receptor was determined using [3H]- mibolerone as radioligand.
As a reminder, the Ki is a dissociation constant, usually derived from enzyme kinetics or from competition with a known ligand. In turn, `C[C@](O)(CS(=O)(=O)c1ccc(N=C=S)cc1)C(=O)Nc1ccc(C#N)c(C(F)(F)F)c1` had a Ki of 41 nM. In the case of `C[C@](O)(CSc1cccc(NC(=O)CCl)c1)C(=O)Nc1ccc(C#N)c(C(F)(F)F)c1` it was over 1000 nM.

In turn, `C[C@](O)(CS(=O)(=O)c1cccc(NC(=O)CCl)c1)C(=O)Nc1ccc(C#N)c(C(F)(F)F)c1` yielded a Ki of 130 nM. For `C[C@](O)(CSc1cccc(NC(=O)CBr)c1)C(=O)Nc1ccc(C#N)c(C(F)(F)F)c1`, the Ki was over 1000 nM.

For the origin of these results see ChEMBL document CHEMBL1133700, “Chiral nonsteroidal affinity ligands for the androgen receptor. 1. Bicalutamide analogues bearing electrophilic groups in the B aromatic ring” (J Med Chem, 2000).
